From PubChem BioAssay (NCI)
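96-well plates; 48 h exposure; 5 concentrations. Endpoints by linear interpolation between flanking doses. Not reached: highest tested concentration assigned. TGI marks complete inhibition of growth.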

What was measured:
Assay in all cases: DTP human tumour cell line panel, 48 h
MDA-N = test system: MDA-N
ACHN renal = test system: ACHN renal
RPMI-8226 leukemia = test system: RPMI-8226 leukemia
TK-10 renal = test system: TK-10 renal
SF-295 CNS = test system: SF-295 CNS
SK-MEL-28 melanoma = test system: SK-MEL-28 melanoma
SR leukemia = test system: SR leukemia
HCT-116 colon = test system: HCT-116 colon
SN12C renal = test system: SN12C renal
MDA-MB-435 = test system: MDA-MB-435
CAKI-1 renal = test system: CAKI-1 renal
NCI-H23 lung = test system: NCI-H23 lung
OVCAR-5 ovarian = test system: OVCAR-5 ovarian
A549 NSCLC = test system: A549 NSCLC
KM12 colon = test system: KM12 colon
MOLT-4 leukemia = test system: MOLT-4 leukemia
UACC-257 melanoma = test system: UACC-257 melanoma
SF-539 CNS = test system: SF-539 CNS
HCC-2998 colon = test system: HCC-2998 colon
SNB-75 CNS = test system: SNB-75 CNS

How did the TGI (MDA-N) turn out when `O=C(O)c1cnccc1-c1cc(=O)[nH]n1-c1ccccc1` was run?
Its TGI is over 100 µM.

And the TGI (ACHN renal)?
The TGI was over 100 µM.

What about the TGI (RPMI-8226 leukemia) of the same molecule?
Its TGI is over 100 µM.

And the TGI (TK-10 renal)?
The TGI was over 100 µM.

What about the TGI (SF-295 CNS) of the same molecule?
The TGI was over 63.8 µM.

What about the TGI (SK-MEL-28 melanoma) of the same molecule?
Its TGI is over 78.2 µM.

And the TGI (SR leukemia)?
Its TGI is over 100 µM.

What about the TGI (HCT-116 colon) of the same molecule?
Its TGI is over 100 µM.

And the TGI (SN12C renal)?
Its TGI is over 100 µM.

What about the TGI (MDA-MB-435) of the same molecule?
Its TGI is over 100 µM.

What about the TGI (CAKI-1 renal) of the same molecule?
The TGI was over 100 µM.

And the TGI (NCI-H23 lung)?
The TGI was over 100 µM.

And the TGI (OVCAR-5 ovarian)?
Its TGI is over 100 µM.

And the TGI (A549 NSCLC)?
The TGI was over 100 µM.

And the TGI (KM12 colon)?
Its TGI is over 100 µM.

What about the TGI (MOLT-4 leukemia) of the same molecule?
Its TGI is over 77.6 µM.

What about the TGI (UACC-257 melanoma) of the same molecule?
The TGI was over 100 µM.

And the TGI (SF-539 CNS)?
Its TGI is over 71.2 µM.

What about the TGI (HCC-2998 colon) of the same molecule?
Its TGI is over 63.2 µM.

And the TGI (SNB-75 CNS)?
The TGI was over 100 µM.

What does the source list for `O=C1OC(C2Cc3cc4c(cc3C2=O)CCC4)c2ccccc21` (stereo not given)?
TGI (MDA-N): > 100 µM; TGI (ACHN renal): > 100 µM; TGI (RPMI-8226 leukemia): > 100 µM; TGI (TK-10 renal): > 100 µM; TGI (SF-295 CNS): > 100 µM; TGI (SK-MEL-28 melanoma): > 100 µM; TGI (SR leukemia): > 100 µM; TGI (HCT-116 colon): > 100 µM; TGI (SN12C renal): > 100 µM; TGI (MDA-MB-435): > 100 µM; TGI (CAKI-1 renal): > 100 µM; TGI (NCI-H23 lung): > 100 µM; TGI (OVCAR-5 ovarian): > 100 µM; TGI (A549 NSCLC): > 100 µM; TGI (KM12 colon): > 100 µM; TGI (MOLT-4 leukemia): 64.4 µM; TGI (UACC-257 melanoma): > 100 µM; TGI (SF-539 CNS): 80.4 µM; TGI (HCC-2998 colon): 98.7 µM; TGI (SNB-75 CNS): > 100 µM

For `CCN(CC)CCC(=O)c1ccc(Oc2ccc(C)cc2)cc1`, which TGI (MDA-N) is on record?
Its TGI is 31.5 µM.

What about the TGI (ACHN renal) of the same molecule?
Its TGI is 38.1 µM.

And the TGI (RPMI-8226 leukemia)?
Its TGI is 65.9 µM.

And the TGI (TK-10 renal)?
The TGI was 32.5 µM.

What about the TGI (SF-295 CNS) of the same molecule?
Its TGI is 36.4 µM.

And the TGI (SK-MEL-28 melanoma)?
The TGI was 30.5 µM.

What about the TGI (SR leukemia) of the same molecule?
Its TGI is over 100 µM.

And the TGI (HCT-116 colon)?
The TGI was 31.2 µM.

And the TGI (SN12C renal)?
Its TGI is 30.4 µM.

What about the TGI (MDA-MB-435) of the same molecule?
The TGI was 32 µM.

And the TGI (CAKI-1 renal)?
Its TGI is 31.1 µM.

What about the TGI (NCI-H23 lung) of the same molecule?
Its TGI is 34.8 µM.

What about the TGI (OVCAR-5 ovarian) of the same molecule?
Its TGI is 41 µM.

What about the TGI (A549 NSCLC) of the same molecule?
The TGI was over 100 µM.

What about the TGI (KM12 colon) of the same molecule?
The TGI was 23.9 µM.

What about the TGI (MOLT-4 leukemia) of the same molecule?
Its TGI is 60.7 µM.

What about the TGI (UACC-257 melanoma) of the same molecule?
Its TGI is 34.4 µM.

And the TGI (SF-539 CNS)?
Its TGI is 33.1 µM.

What about the TGI (HCC-2998 colon) of the same molecule?
Its TGI is 36.2 µM.

What about the TGI (SNB-75 CNS) of the same molecule?
Its TGI is 35.7 µM.

For `C#CCn1c(=O)c(C)cn(/C(=C/C(=O)OCC)C(=O)OCC)c1=O`, which TGI (MDA-N) is on record?
Its TGI is 43.8 µM.

What about the TGI (ACHN renal) of the same molecule?
Its TGI is 3.64 µM.

What about the TGI (RPMI-8226 leukemia) of the same molecule?
The TGI was over 27.7 µM.

What about the TGI (TK-10 renal) of the same molecule?
Its TGI is 4.29 µM.

What about the TGI (SF-295 CNS) of the same molecule?
The TGI was 40.5 µM.

What about the TGI (SK-MEL-28 melanoma) of the same molecule?
The TGI was 19.7 µM.

And the TGI (SR leukemia)?
The TGI was over 100 µM.

And the TGI (HCT-116 colon)?
The TGI was 13.7 µM.

What about the TGI (SN12C renal) of the same molecule?
Its TGI is 26.2 µM.

What about the TGI (MDA-MB-435) of the same molecule?
The TGI was 20.5 µM.

And the TGI (CAKI-1 renal)?
Its TGI is 3.18 µM.

What about the TGI (NCI-H23 lung) of the same molecule?
The TGI was 23.4 µM.

And the TGI (OVCAR-5 ovarian)?
The TGI was 16 µM.

What about the TGI (A549 NSCLC) of the same molecule?
Its TGI is 32.4 µM.

And the TGI (KM12 colon)?
Its TGI is 32 µM.

What about the TGI (MOLT-4 leukemia) of the same molecule?
The TGI was 30.6 µM.

And the TGI (UACC-257 melanoma)?
The TGI was 28.8 µM.

And the TGI (SF-539 CNS)?
Its TGI is 4.77 µM.

What about the TGI (HCC-2998 colon) of the same molecule?
Its TGI is 32.2 µM.

What about the TGI (SNB-75 CNS) of the same molecule?
The TGI was 28.8 µM.
